Data published in patent US4582821A, “Inhibition of cyclic nucleotide independent protein kinases” (E. I. Du Pont de Nemours and Company, priority 1983, dated 1986).

How the values were obtained:
A-431 cell EGF receptor = target: T1, A-431 cell EGF receptor (Homo sapiens, UniProt P00533); assay: Protein phosphorylation of A-431 cell membrane EGF receptors (intact membranes, EGF present); format: biochemical; conditions: 600 nmoles/mg protein, intact A-431 membranes
T1 construct: intact A-431 cell membranes were employed, rather than solubilized extracts; endogenous in cells; host or cells: A-431 human epidermoid carcinoma cells (plasma membranes)
T1 sequence (P00533 25-1210): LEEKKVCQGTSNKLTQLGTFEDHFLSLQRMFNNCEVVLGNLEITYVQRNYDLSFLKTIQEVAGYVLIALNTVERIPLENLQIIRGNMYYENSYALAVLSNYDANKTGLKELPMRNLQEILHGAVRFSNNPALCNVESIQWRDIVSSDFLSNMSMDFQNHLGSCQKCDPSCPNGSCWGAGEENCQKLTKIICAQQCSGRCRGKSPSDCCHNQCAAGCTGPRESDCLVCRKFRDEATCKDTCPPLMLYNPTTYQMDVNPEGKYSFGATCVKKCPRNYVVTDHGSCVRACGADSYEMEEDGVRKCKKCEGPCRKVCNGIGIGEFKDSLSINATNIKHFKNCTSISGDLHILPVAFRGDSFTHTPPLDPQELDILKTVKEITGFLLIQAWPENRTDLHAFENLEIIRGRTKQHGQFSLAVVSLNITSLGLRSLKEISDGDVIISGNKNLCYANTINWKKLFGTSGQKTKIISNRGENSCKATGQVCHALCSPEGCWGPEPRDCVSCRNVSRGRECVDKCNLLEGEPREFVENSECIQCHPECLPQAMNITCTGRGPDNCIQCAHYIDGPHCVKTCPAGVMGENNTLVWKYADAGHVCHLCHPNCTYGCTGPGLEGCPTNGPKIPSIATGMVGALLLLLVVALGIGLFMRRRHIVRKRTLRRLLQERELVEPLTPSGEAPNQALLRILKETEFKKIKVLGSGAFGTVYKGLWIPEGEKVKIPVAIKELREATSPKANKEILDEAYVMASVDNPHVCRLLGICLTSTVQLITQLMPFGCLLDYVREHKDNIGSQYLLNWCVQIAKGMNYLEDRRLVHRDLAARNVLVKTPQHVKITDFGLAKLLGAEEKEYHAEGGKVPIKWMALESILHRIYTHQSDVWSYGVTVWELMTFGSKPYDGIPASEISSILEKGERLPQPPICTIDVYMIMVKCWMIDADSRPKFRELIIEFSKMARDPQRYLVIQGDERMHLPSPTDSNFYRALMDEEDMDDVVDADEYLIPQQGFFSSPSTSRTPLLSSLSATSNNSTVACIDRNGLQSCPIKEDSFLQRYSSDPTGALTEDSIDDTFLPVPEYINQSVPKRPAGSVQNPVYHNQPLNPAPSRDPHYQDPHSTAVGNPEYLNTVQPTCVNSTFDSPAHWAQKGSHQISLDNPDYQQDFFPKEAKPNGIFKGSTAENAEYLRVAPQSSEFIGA
How it was run: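 Intact A-431 membranes with 1 mM ouabain, 20 mM Hepes pH 7.4, 1 mM MnCl2 and 100 ng EGF, preincubated with peptide halomethyl ketones (ethanol vehicle) ~23° for 10 min, then 10 min at 0°. Phosphorylation started with 15 μM [γ-32P]ATP, run 6 min at 0°; TCA-precipitated radioactivity counted by scintillation.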

pp60^src = assay: Immune complex phosphorylation by pp60src immunoprecipitates of RSV-transformed cells; format: biochemical, Rous sarcoma virus (RSV); conditions: 250 nmoles per mg protein
Protocol: (§1) In this experiment, Boc-LeuCH2 Br was tested as an inhibitor of pp60^src and p130^fps, the tyrosine-specific protein kinases encoded by the transforming genes of RSV and Fujinami sarcoma virus, respectively.
(§2) These viral gene products were partially purified by preparation of immune complexes substantially according to the technique described by Collett et al., Proc. Nat. Acad. Sci. USA 75:2021 (1978). In this procedure, immunoprecipitates are prepared by incubation of extracts of virus-transformed cells with tumor-bearing rabbit serum (TBR) and Staphylococcus protein A suspension (for RSV-transformed cells) or anti-gag serum and Staphylococcus protein A suspension (for FSV-transformed cells).
(§3) Assay mixtures contained, in a final volume of 70 μL, 100 μg of immune complex protein, 20 mM Hepes, pH 7.4, and 1 mM MnCl2. Phosphorylation was initiated by addition of 1 μM (4 μCi) [γ-^32 P] ATP. After 10 minutes at about 23°, reactions were terminated by pipetting 20 μL aliquots of assay mixture onto 2×2 cm squares of Whatman 3 MM filter paper, which were immediately suspended in 10% TCA/10 mM sodium pyrophosphate. Test mixtures contained 250 nmoles Boc-LeuCH2 Br per mg protein. Controls for the immunoprecipitation procedure were prepared by immunoprecipitating transformed cell extracts with normal serum. Values in parentheses represent specific phosphorylation induced by virus-transformed cells.

p130^fps [1] = target: T2, p130^fps (UniProt P00530+P03323); assay: Casein phosphorylation by p130fps immunoprecipitates; format: biochemical, Fujinami sarcoma virus (FSV); conditions: for Casein Phosphorylation: 1 mg/mL casein
T2 construct: anti-gag serum and Staphylococcus protein A suspension (for FSV-transformed cells); viral gag-derived N-terminal portion (natural gag-fps fusion); expressed in transfected cells; immune complex with anti-gag serum and Staphylococcus protein A
Protocol: In a related experiment, the capacity of Boc-LeuCH2 Br to inhibit phosphorylation of casein by p130^fps was determined. These tests were conducted substantially as described above, except 1 mg/mL casein was added to assay mixtures as a substrate, and reactions were terminated by addition of 2.5 mM unlabeled ATP and immediate cooling to 0°. Phosphorylated casein was separated from immunoprecipitate suspensions by centrifugation at 3,000 xg for 3 minutes. The resulting pellets were resuspended in 70 μL of 10 mM Hepes, pH 7.5, and 20 μL aliquots were pipetted onto filter paper squares as previously described. […]

p130^fps [2] = target: T2, p130^fps; assay: Immune complex phosphorylation by p130fps immunoprecipitates of FSV-transformed cells; format: biochemical, Fujinami sarcoma virus (FSV); conditions: for Activity (cpm), FSV: anti-gag immunoprecipitates, no inhibitor 27036; for Activity (cpm), Control: extracts immunoprecipitated with normal serum, no inhibitor 2624
Protocol: as §1, §2
as §3, with “Test mixtures contained 250 nmoles Boc-LeuCH2 Br per mg protein.” left out
In a related experiment, the capacity of Boc-LeuCH2 Br to inhibit phosphorylation of casein by p130^fps was determined. These tests were conducted substantially as described above, except 1 mg/mL casein was added to assay mixtures as a substrate, and reactions were terminated by addition of 2.5 mM unlabeled ATP and immediate cooling to 0°. Phosphorylated casein was separated from immunoprecipitate suspensions by centrifugation at 3,000 xg for 3 minutes. The resulting pellets were resuspended in 70 μL of 10 mM Hepes, pH 7.5, and 20 μL aliquots were pipetted onto filter paper squares as previously described.
This experiment was conducted substantially according to the procedures described in Example 17, above. In Table 5, "FSV" refers to immunoprecipitates of FSV-transformed cell extracts prepared by addition of anti-gag serum; controls were extracts immunoprecipitated with normal serum.

## CC(C)CC(NC(=O)OC(C)(C)C)C(=O)CBr (stereo not drawn) [Boc-LeuCH2 Br]
A-431 cell EGF receptor
  % inhibition: 29%
pp60^src; pp60 + control serum, no inhibitor 7872
  Immune Complex Phosphorylation: 7516 cpm
pp60^src; pp60src + TBR serum, no inhibitor 5112
  Immune Complex Phosphorylation, specific phosphorylation (in parentheses): 3202 cpm
pp60^src; pp60src + TBR serum, no inhibitor 12984
  Immune Complex Phosphorylation: 10718 cpm
p130^fps [1]; p130fps + anti-gag serum, no inhibitor 4442
  Casein Phosphorylation: 618 cpm
p130^fps [1]; p130fps + control serum, no inhibitor 326
  Casein Phosphorylation: 226 cpm
p130^fps [1]; casein-phosphorylating activity of p130fps, concentration not given
  Percent Inhibition: 63%
p130^fps [2]; 250 nmoles/mg protein
  % inhibition: 48%
  Activity (cpm), FSV: 13932 cpm
  Activity (cpm), Control: 2370 cpm
p130^fps [2]; 500 nmoles/mg protein
  % inhibition: 69%
  Activity (cpm), FSV: 8344 cpm
  Activity (cpm), Control: 2180 cpm
p130^fps [2]; p130fps + anti-gag serum, 250 nmoles per mg protein, no inhibitor 20104
  Immune Complex Phosphorylation, specific phosphorylation (in parentheses): 6324 cpm
p130^fps [2]; p130fps + anti-gag serum, 250 nmoles per mg protein, no inhibitor 29244
  Immune Complex Phosphorylation: 15222 cpm
p130^fps [2]; p130fps + control serum, 250 nmoles per mg protein, no inhibitor 9140
  Immune Complex Phosphorylation: 8898 cpm
p130^fps [2]; related experiment with 1 mg/mL casein, p130fps + anti-gag serum, no inhibitor 7663
  Immune Complex Phosphorylation: 1656 cpm
p130^fps [2]; related experiment with 1 mg/mL casein, p130fps + control serum, no inhibitor 1184
  Immune Complex Phosphorylation: 1286 cpm
